Laboratory results reported in a compilation of properties of binary mixtures (doi:10.1021/je3004904).

Test: xn = mol fraction of the nth substance listed
Conditions: 101 kPa

Cn1cc[nH+]c1.[Cl-] + Cl[Al](Cl)Cl
Conditions	electrical conductivity, x2 = 0.643 [S/m]	electrical conductivity, x2 = 0.667 [S/m]	viscosity, x2 = 0.643 [mPa·s]	viscosity, x2 = 0.667 [mPa·s]
293.15 K	–	–	78.3	50.8
298.15 K	0.456	0.601	59.41	40.23
303.15 K	0.553	–	46.88	–
308.15 K	0.661	0.827	38.17	27.36
313.15 K	–	0.961	–	23.28
318.15 K	0.909	1.1	27.17	20.13
323.15 K	1.05	1.25	23.58	17.66
328.15 K	1.2	1.4	20.75	15.67
333.15 K	1.36	1.56	18.5	14.06
338.15 K	1.53	1.74	16.67	12.72
343.15 K	1.7	1.92	15.15	11.61
